# Measured values: paper PMC12980303, “Development of a novel risk score reflecting the relative harm potential of synthetic cannabinoids based on prevalence estimates, well‐documented intoxication cases and basic pharmacological data” (Addiction (Abingdon, England), 2025)
# Several values for one entry are separate records, joined by “and”; a condition that tells them apart may be missing. Identical values can stand only once. Like-named read-outs stand apart in the source and are kept apart here. Marks after values point to notes of the source that are not given here.
# Key:
# hCB1 receptor [1] = target: T1, hCB1 receptor (Homo sapiens, UniProt P21554); assay: competitive [3H]CP‐55940 radioligand binding assay (hCB1 receptor affinity); settings: Ki [nM] (95% CI), [3H]CP‐55940 competition, hCB1 membrane preparations (HEK293‐EBNA), Cheng–Prusoff; 95% CI in brackets
# T1 sequence (P21554 whole entry): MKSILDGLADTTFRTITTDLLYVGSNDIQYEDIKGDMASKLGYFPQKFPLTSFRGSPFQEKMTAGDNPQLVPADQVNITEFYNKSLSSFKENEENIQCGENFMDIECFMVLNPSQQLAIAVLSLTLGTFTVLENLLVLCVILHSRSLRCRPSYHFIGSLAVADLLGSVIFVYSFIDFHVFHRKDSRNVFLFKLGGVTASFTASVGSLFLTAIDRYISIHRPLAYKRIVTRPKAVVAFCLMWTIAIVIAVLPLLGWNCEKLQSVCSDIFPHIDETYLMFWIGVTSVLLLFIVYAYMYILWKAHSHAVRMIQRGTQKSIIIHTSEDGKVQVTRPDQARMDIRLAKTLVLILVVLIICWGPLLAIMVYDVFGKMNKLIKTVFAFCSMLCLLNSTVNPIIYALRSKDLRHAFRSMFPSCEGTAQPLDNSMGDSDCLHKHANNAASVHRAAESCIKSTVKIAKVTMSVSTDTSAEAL
# Protocol: (§1) Receptor assays were performed on three different days and each concentration was tested in duplicate.
# From the IC50, the respective Ki values were calculated using the Cheng–Prusoff equation [39].
# hCB1 receptor [2] = target: T1, hCB1 receptor
# [3] = occurrence of SCRAs in intoxication samples of the prospective study; set-up: species or system human; settings: 2013 to 2021; for No. of intoxications: 139 intoxication samples of the prospective study; for Percentage in %: proportion of 139 intoxications in which the substance was detected
# Excerpt: For this study, the 10 SCRAs (AB‐[…], ADB‐[…], AB‐FUBINACA, FUB‐AMB, Cumyl‐PEGACLONE, MDMB‐4en‐PINACA, MDMB‐CHMICA, 5F‐MDMB‐PICA, 5F‐ADB and 5F‐PB‐22) which were most frequently detected in intoxications in a prospective observational study during the time period of 2013 to 2021 were selected (see Table 1). Additionally, JWH‐210, a model compound representative of the early SCRAs, along with two substances prevalent in screenings during years 2019/2020 (5F‐Cumyl‐PEGACLONE and 4F‐MDMB‐BICA), were included in this study (see Tables S2–S7). […] JWH‐018 was also included as a reference compound because of its historical use in this capacity. Including both reference compounds facilitates direct comparison with previously published data, thereby enhancing the relevance and interpretability of the results obtained in the present study. Information on the origin of the test and reference compounds and all chemicals used in this study can be found in Table S1.
# The data on intoxication cases used for the development of this risk score were obtained from a prospective study. This study included patients who were treated in an emergency department room following the consumption of an NPS. Clinical symptoms and follow‐up information were documented using a structured questionnaire completed by the attending physicians. The methodology has been previously published. Residual serum (obtained from venous blood) and urine samples, accompanied by the completed questionnaires, were sent to the Poisons Information Center Freiburg for further analysis. The toxicological analyses of serum and urine samples were conducted at the Institute of Forensic Medicine Freiburg. No data was available on previous consumption patterns or potential development of tolerance after continued misuse. The study was conducted in accordance with the Declaration of Helsinki and approved by the regional ethics committee of the University of Freiburg (no. 235/13_130683). The intoxication cases included in this study are those in which SCRA use was confirmed by liquid chromatography tandem mass spectrometry (LC–MS/MS).
# [4] = risk score from prevalence in routine forensic samples and intoxication cases (G1, PSS, TSS); set-up: species or system human; settings: for G total (risk score): G1+G2+G3, higher value = greater toxicological risk; for G2: mean Poison Severity Score (PSS) of all intoxications with the SCRA; for G3: mean Toxicological Significance Score (TSS) of all intoxications with the SCRA; for G1: proportion in intoxication cases relative to prevalence in routine serum/blood and urine samples per quarter, 2013–2021, >1 over‐represented in intoxications
# Excerpt: Therefore, higher values indicate substances with a higher risk. […] To take into account the severity of symptoms and the contribution of the specific NPS, two further summands were introduced. The first is based on the PSS, the second on the TSS. Again, higher values were associated with more severe symptoms and a stronger role of the NPS in causing the symptoms.
# The risk score is composed of three components (parts G1, G2 and G3) and was designed as follows: (1) Gx=G1x+G2x+G3x,
# Equation 2 takes into consideration several components: the number of intoxications with SCRA x in quarter k over the total number of intoxications of all investigated SCRAs in the same quarter; the number of serum/blood samples positive for SCRA x over the total number of serum/blood samples positive for all SCRAs plus the number of urine samples positive for SCRA x over the total number of urine samples positive for all SCRAs (this is divided by two to account for the two different sample types); and the number of quarters in which the SCRA x was prevalent. (2) G1x=∑k=1gak/bk/ck/dk+ek/fk/2/h+i
# Consequently, equation 2 was mathematically rearranged. To further simplify the equation and reduce the formula signs, in equation 3 the following simplifications were taken: a/b=ai , c/d=as and e/f=au .
# The sum of these quotients was divided by the number of all prevalent quarters (q p ). Prevalent quarters were defined as quarters in which on average the substance was detected in more than 5% of the positive serum and urine samples. If a poisoning occurred in a quarter in which the substance was not prevalent, the number of these quarters was added (q i ). This part of the score has similarities with an OR [42]. If the proportion of routine samples in a given quarter in which an intoxication with the respective substance occurred was zero (a s + a u = 0), a value of 0.01 was used for that quarter in the calculation of the quotient to avoid division by zero.
# For part G2, the severity of the intoxication caused by the respective SCRA x was assessed on the basis of reported symptoms and follow‐up information using the PSS [20]. The PSS classifies the intoxication severity into five levels: (0) no, (1) mild, (2) moderate, (3) severe, and (4) fatal intoxication. […] For this purpose, the mean value of the PSS of all intoxications with the respective SCRA x was calculated ( G2x) .
# For part G3, the involvement of the SCRA in the respective intoxications was assessed. This was evaluated on the basis of the TSS [21]. Elliott et al. developed the TSS to assess and classify the contribution of NPS in fatalities. In the present study, the TSS was determined to weigh the involvement of the investigated SCRA in the intoxication and the contribution of the SCRA to the observed symptoms. To determine the TSS value, factors such as the determined concentration of the SCRA, the presence of other recreational drugs or medicinal drugs, the general health of the patient and the consumption circumstances need to be considered. […] In cases with more than one drug detected, a TSS of 3 was only assigned where other compounds were present at concentrations below the range in which relevant effects are to be expected.
# For the risk score, the mean value of the TSS of all intoxications with substance x was calculated ( G3x) . Analogous to the value of G2x , the value of G3x can theoretically be between 1 and 3. With a value of ‘1’, substance x was not mainly responsible for the symptoms in all of the intoxications (low level of significance), and with a value of ‘3’, it was the main cause in every poisoning in which it was detected.
# hCB1 receptor [5] = target: T1, hCB1 receptor; assay: functional [35S]GTPγS hCB1 activation assay; format: biochemical; settings: for Emax: read-out: [35S]‐GTPγS assay Emax [%] (95% CI)
# Protocol: as §1
# [6] = relative to CP‐55940; ref Grafinger et al. [27]; cited from earlier work
# [7] = read-out: βarr2 assay EC50 [nM] (95% CI); ref Noble et al. [30]; cited from earlier work
# [8] = relative to CP‐55940; originally normalised to JWH‐018, corrected with factor 0.3268; ref Noble et al. [30]; cited from earlier work
SMILES,Ki (hCB1 receptor [1]),No. of intoxications [3],Percentage in % [3],G total (risk score) [4],G2 [4],G3 [4],G1 [4],EC50 (hCB1 receptor [5]),Emax (hCB1 receptor [5]),other results
CC(C)(c1ccccc1)n1ccc2c(c1=O)c1ccccc1n2CCCCCF [5F‐Cumyl‐PEGACLONE],0.0991 nM,1,0.72%,3.1,2.0,1.0,0.11,1.64 nM,105%,"EC50 (hCB1 receptor [2]; read-out: βarr2 assay EC50 [nM] (95% CI); ref Janssens et al. [43]; cited from earlier work): 0.58 nM; βarr2 assay Emax [%] (95% CI) (hCB1 receptor [2]; relative to CP‐55940; originally normalised to JWH‐018, corrected with factor 0.3268; ref Janssens et al. [43]; cited from earlier work): 1089 (988.4–1190) ^a %"
"CCCCCn1cc(C(=O)c2cccc3ccccc23)c2ccccc21 [JWH‐018, reference compound]",2.86 nM,–,–,–,–,–,–,38.6 nM,118%,βarr2 assay Emax [%] (95% CI) (hCB1 receptor [2]; [6]): 306 ^b (281–333) %
"CCCCCCC(C)(C)c1ccc([C@@H]2C[C@H](O)CC[C@H]2CCCO)c(O)c1 [CP‐55940, reference compound]",–,–,–,–,–,–,–,–,96.9%,–
COC(=O)C(NC(=O)c1cn(CCCCF)c2ccccc12)C(C)(C)C (stereo not shown) [4F‐MDMB‐BICA],5.67 nM,2,1.4%,5.5,2.0,3.0,0.48,137 nM,104%,"EC50 (hCB1 receptor [2]; read-out: βarr2 assay EC50 [nM] (95% CI); ref Cannaert et al. [44]; cited from earlier work): 121 nM; βarr2 assay Emax [%] (95% CI) (hCB1 receptor [2]; relative to CP‐55940; originally normalised to JWH‐018, corrected with factor 0.3268; ref Cannaert et al. [44]; cited from earlier work): 774.2 (685.4–911.9) ^a %"
COC(=O)C(NC(=O)c1nn(CCCCCF)c2ccccc12)C(C)(C)C (stereo not shown) [5F‐ADB],0.0993 nM,33,24%,6.9,1.9,2.6,2.5,1.95 nM,103%,EC50 (hCB1 receptor [2]; ref Wouters et al. [29]; read-out: βarr2 assay EC50 [nM] (95% CI); cited from earlier work): 0.84 nM
C=CCCCn1nc(C(=O)NC(C(=O)OC)C(C)(C)C)c2ccccc21 (stereo not shown) [MDMB‐4en‐PINACA],–,6,4.3%,6.8,2.2,3.0,1.6,13.4 nM,114%,EC50 (hCB1 receptor [2]; ref Grafinger et al. [27]; read-out: βarr2 assay EC50 [nM] (95% CI); cited from earlier work): 1.88 nM; βarr2 assay Emax [%] (95% CI) (hCB1 receptor [2]; [6]): 679 (623–730) %
CC(C)(C)C(NC(=O)c1nn(CC2CCCCC2)c2ccccc12)C(N)=O (stereo not shown),0.0229 nM and 0.0231 nM,18,13%,7.1,2.1,2.7,2.3,0.467 nM,124%,"EC50 (hCB1 receptor [2]; read-out: βarr2 assay EC50 [nM] (95% CI); ref Wouters et al. [29]; cited from earlier work): 0.34 nM; βarr2 assay Emax [%] (95% CI) (hCB1 receptor [2]; relative to CP‐55940; originally normalised to JWH‐018, corrected with factor 0.3268; ref Wouters et al. [29]; cited from earlier work): 803.6 ^a (724.3–921.4) %"
COC(=O)C(NC(=O)c1cn(CC2CCCCC2)c2ccccc12)C(C)(C)C (stereo not shown) [MDMB‐CHMICA],0.935 nM,31,22%,5.7,2.2,2.8,0.73,11.8 nM,103%,EC50 (hCB1 receptor [2]; read-out: βarr2 assay EC50 [nM] (95% CI); ref Wouters et al. [31]; cited from earlier work): 2.2 nM; βarr2 assay Emax [%] (95% CI) (hCB1 receptor [2]; relative to CP‐55940; ref Wouters et al. [31]; cited from earlier work): 885.7 (818.5–958.0) %
COC(=O)C(NC(=O)c1cn(CCCCCF)c2ccccc12)C(C)(C)C (stereo not shown) [5F‐MDMB‐PICA],0.321 nM,15,11%,8.1,2.1,2.8,3.2,7.88 nM,112%,EC50 (hCB1 receptor [2]; [7]): 3.26 nM; βarr2 assay Emax [%] (95% CI) (hCB1 receptor [2]; [8]): 1014 (951.7–1075) ^a %
CC(C)C(NC(=O)c1nn(Cc2ccc(F)cc2)c2ccccc12)C(N)=O (stereo not shown) [AB‐FUBINACA],0.385 nM,–,–,–,–,–,–,17.5 nM,114%,EC50 (hCB1 receptor [2]; [7]): 15.6 nM; βarr2 assay Emax [%] (95% CI) (hCB1 receptor [2]; [8]): 990.5 (922.9–1059) ^a %
